# Data as given in patent publication US9187472B2 (AbbVie Inc., priority 2012, dated 2015).
# Assays:
# PC3 cells = experiment: NAMPT Cell Proliferation Assay; type: cell-based; settings: Homo sapiens, PC-3, 120 h, 5 days incubation, cell viability by Cell Titer Glo
# How it was run: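 Proliferation of PC3 cells treated 5 days with a 10-fold compound series (top 10 μM) was quantified by Cell Titer Glo luminescence; IC50s were fitted from percent inhibition.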
# NAMPT = NAMPT (Homo sapiens, UniProt P43490); experiment: TR-FRET Binding Assay of NAMPT with PRPP; settings: with 200 μM PRPP and 2.5 mM ATP; 2 nM NAMPT, 2 nM probe, 16 hours equilibration
# How it was run: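 NAMPT 2 nM + probe 2 nM + Tb-anti-His Ab 1 nM; PRPP 200 μM, ATP 2.5 mM, DMSO 2%; 16 h equilibration before TR-FRET read.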
# [1] = target: NAMPT (human, recombinant, C-terminally His-tagged) (Homo sapiens, UniProt P43490); experiment: Time-Resolved Fluorescence Resonance Energy Transfer (TR-FRET) Binding Assay of NAMPT; settings: without substrates; 6.8 nM NAMPT, 200 nM probe, 3 hours equilibration
# How it was run: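 Read-out is the time-resolved FRET ratio Em520/Em495 (excitation 337 nm) between a terbium anti-His antibody (1 nM) on the enzyme and an Oregon Green 488-labelled nicotinamide-competitive inhibitor probe (200 nM). Enzyme was 6.8 nM, DMSO 2%, pH 7.5 HEPES buffer; 3 h room-temperature equilibration preceded reading.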
# NAMPT, sequence (P43490 whole entry): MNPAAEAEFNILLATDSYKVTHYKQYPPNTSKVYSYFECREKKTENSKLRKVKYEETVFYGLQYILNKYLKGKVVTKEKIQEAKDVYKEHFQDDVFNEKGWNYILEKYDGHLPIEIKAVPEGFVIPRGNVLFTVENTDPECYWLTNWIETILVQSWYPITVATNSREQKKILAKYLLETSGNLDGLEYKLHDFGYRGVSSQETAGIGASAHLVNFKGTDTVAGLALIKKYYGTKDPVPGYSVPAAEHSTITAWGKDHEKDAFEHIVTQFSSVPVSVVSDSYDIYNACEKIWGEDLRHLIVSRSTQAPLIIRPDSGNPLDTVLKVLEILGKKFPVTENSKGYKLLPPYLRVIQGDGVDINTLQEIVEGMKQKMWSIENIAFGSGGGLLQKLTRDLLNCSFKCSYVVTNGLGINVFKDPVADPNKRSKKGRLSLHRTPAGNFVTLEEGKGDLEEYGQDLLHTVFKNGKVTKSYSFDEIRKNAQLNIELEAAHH
# NAMPT (human, recombinant, C-terminally His-tagged), sequence (P43490 whole entry): as above
Structure (SMILES),IC50 (PC3 cells),IC50 (NAMPT),IC50 [1]
"COCCC(=O)N(C[C@H]1CCCO1)c1ncc(C(=O)NCc2ccc3nccn3c2)s1 [Example 145, N-(imidazo[1,2-a]pyridin-6-ylmethyl)-2-{(3-methoxypropanoyl)[(2R)-tetrahydrofuran-2-ylmethyl]amino}-1,3-thiazole-5-carboxamide]",6.01 nM,1.08 nM,191 nM
"O=C(NCc1ccc2nccn2c1)c1cnc(N(C[C@H]2CCCO2)C(=O)C2CCOC2)s1 (stereo partly drawn) [Example 146, N-(imidazo[1,2-a]pyridin-6-ylmethyl)-2-{(tetrahydrofuran-3-ylcarbonyl)[(2R)-tetrahydrofuran-2-ylmethyl]amino}-1,3-thiazole-5-carboxamide]",7.69 nM,0.403 nM,261 nM
"O=C(NCc1ccc2nccn2c1)c1cnc(N(C[C@H]2CCCO2)C(=O)C2CCOCC2)s1 [Example 147, N-(imidazo[1,2-a]pyridin-6-ylmethyl)-2-{[(2R)-tetrahydrofuran-2-ylmethyl](tetrahydro-2H-pyran-4-ylcarbonyl)amino}-1,3-thiazole-5-carboxamide]",6.69 nM,0.63 nM,251 nM
"COCCC(=O)N(C[C@@H]1CCCO1)c1ncc(C(=O)NCc2ccc3nccn3c2)s1 [Example 148, N-(imidazo[1,2-a]pyridin-6-ylmethyl)-2-{(3-methoxypropanoyl)[(2S)-tetrahydrofuran-2-ylmethyl]amino}-1,3-thiazole-5-carboxamide]",41.5 nM,1.35 nM,6230 nM
"O=C(NCc1ccc2nccn2c1)c1cnc(N(C[C@@H]2CCCO2)C(=O)C2CCOC2)s1 (stereo partly drawn) [Example 149, N-(imidazo[1,2-a]pyridin-6-ylmethyl)-2-{(tetrahydrofuran-3-ylcarbonyl)[(2S)-tetrahydrofuran-2-ylmethyl]amino}-1,3-thiazole-5-carboxamide]",26.6 nM,4.86 nM,> 10000 nM
"O=C(NCc1ccc2nccn2c1)c1cnc(N(C[C@@H]2CCCO2)C(=O)C2CCOCC2)s1 [Example 150, N-(imidazo[1,2-a]pyridin-6-ylmethyl)-2-{[(2S)-tetrahydrofuran-2-ylmethyl](tetrahydro-2H-pyran-4-ylcarbonyl)amino}-1,3-thiazole-5-carboxamide]",36.2 nM,3.49 nM,6110 nM
"COCCNC(=O)N(CC1CCOCC1)c1ncc(C(=O)NCc2ccc3nccn3c2)s1 [Example 151, N-(imidazo[1,2-a]pyridin-6-ylmethyl)-2-{[(2-methoxyethyl)carbamoyl](tetrahydro-2H-pyran-4-ylmethyl)amino}-1,3-thiazole-5-carboxamide]",76.1 nM,5.54 nM,7150 nM
"CC(C)OCCNC(=O)N(CC1CCOCC1)c1ncc(C(=O)NCc2ccc3nccn3c2)s1 [Example 152, N-(imidazo[1,2-a]pyridin-6-ylmethyl)-2-[{[2-(propan-2-yloxy)ethyl]carbamoyl}(tetrahydro-2H-pyran-4-ylmethyl)amino]-1,3-thiazole-5-carboxamide]",28.3 nM,6.91 nM,3600 nM
"COCCNC(=O)N(C[C@H]1CCCO1)c1ncc(C(=O)NCc2ccc3nccn3c2)s1 [Example 153, N-(imidazo[1,2-a]pyridin-6-ylmethyl)-2-{[(2-methoxyethyl)carbamoyl][(2R)-tetrahydrofuran-2-ylmethyl]amino}-1,3-thiazole-5-carboxamide]",3.73 nM,1.88 nM,118 nM
"CC(C)OCCNC(=O)N(C[C@H]1CCCO1)c1ncc(C(=O)NCc2ccc3nccn3c2)s1 [Example 154, N-(imidazo[1,2-a]pyridin-6-ylmethyl)-2-({[2-(propan-2-yloxy)ethyl]carbamoyl}[(2R)-tetrahydrofuran-2-ylmethyl]amino)-1,3-thiazole-5-carboxamide]",6.67 nM,2.6 nM,194 nM
